The test deals with VICs. Put plainly: Alizarin red calcification assay of VICs grown in osteogenic media with MAOA inhibitors. The settings on record: VICs grown in OM, 21 days, inhibitor 10 μM, PBS control, n=3, FIG. 7E. The test is classed as cell-based, human.

Experimental findings from US20220175818A1, “Inhibition of Monoamine Oxidase Subtype A (MAOA) Mitigates Cardiovascular Calcification” (The Brigham and Women's Hospital, Inc., priority 2019, published 2022) are described below.

Method: Representative images, n=3 donors.
Osteogenic, chondrogenic, and adipogenic differentiation assays were conducted for samples of protein, RNA, and media collected at 0, 1, 2, and 3 weeks after changing media from growth media to specialized media. Alizarin Red. alizarin red (AR) 2% (Thermo Fisher Scientific), Alcian blue (AB) 1%, and oil red O (ORO) (Abcam) were used for osteogenic, chondrogenic, and adipogenic assays respectively. Cells plated in 48 or 96 well plates were washed with PBS and fixed for 15 minutes at room temperature with 10% formalin for AR and AB and 4% PFA for ORO. After washing with Milli-Q water, stains were added. […] The incubation times were 20 minutes (AR), 1 hour (AB), and 15 minutes in room temperature (ORO). Washes with Milli-Q water followed for the AR (3×) and AB (4×) stains. […] Pictures were taken using an iPhone7 (Apple) and the amount of dye released was quantified by spectrophotometry at 550 nm.

On to `O=C(NCCN1CCOCC1)c1ccc(Cl)cc1` [moclobemide, Moclobemide], for which the “calcification (Alizarin red staining)” value is recorded as “reduction of calcification”.

Take `Cc1ccc2c(c1)c1c3n2CCNC3CCC1` (centres unmarked) [pirindole]: the “calcification (Alizarin red staining)” value is listed as “reduction of calcification”.
